Assay results as given in patent US10724949B2, “Cuvette for detecting bacteria and determining their susceptibility to antibiotics” (BacterioScan LTD., priority 2005, dated 2020).

System: E. coli
Experiment: Light scattering (speckles image difference plots) test of bacterial susceptibility to an antibiotic agent in a filtered urine sample
Type: cell-based
Details: gentamicin 1% in test cuvette
Excerpt: Background signal originated by particles suspended in the sample of fluid that are larger than the bacteria are excluded by mechanically filtering according to the method of the present invention. However there are sources and light scatterers other than the bacteria that can contribute a stationary background signal. Such signals are typically originated by stationary particles present within the illuminated space, impurity of the light source, defects in, and or particles contaminating, the optical components. Therefore a difference plot is computed for excluding stationary background according to a preferred embodiment of the present invention. The intensity measured in every pixel of a speckles image is subtracted from the intensity measured in the same pixel of a preceding speckles image to form a difference plot. […]
For determining the susceptibility of bacteria to an antibiotic agent, an average value of at least two averaged derivatives computed first for a test cuvette, immediately following the introduction of an antibiotic agent, are compared to an average of the same number of averaged derivatives computed for speckles images received a few minutes later, preferably after more than 5 minutes. The antibiotic agent for which the difference between these averaged derivatives is the larger is determined. […]

## gentamicin
Urine containing E. coli 10^5 CFU/ml, difference plot 30 minutes later vs immediately following introduction (FIG. 9B, 9C)
  concentration of non-stationary scatterers (difference plots of speckles images): significant reduction
Urine containing E. coli, a few minutes after the introduction of the antibiotics (FIG. 9D)
  values of the averaged derivative of the concentration of scatterers in time (normalised by their maximal value): significant reduction (of a few tens of percents)
